The source of these data is PMC12584665, “In vitro and in vivo efficacy of vancomycin against Elizabethkingia species and the impact of increased vancomycin MICs” (Microbiology Spectrum, 2025).

Converted amounts (≈) assume the structure as drawn. Like-named read-outs stand apart in the source and are kept apart here.

The test system of this experiment is Elizabethkingia anophelis. In words: Broth microdilution (BMD) MIC. Particulars: for MIC: Elizabethkingia anophelis; for susceptibility category: all susceptibility tests, CLSI criteria for Enterococcus spp. (susceptible MIC <= 4 mg/L, zone >= 17 mm). The class given is cell-based. The source says: Eighteen E. anophelis clinical isolates from the nationwide surveillance program (Taiwan Surveillance of Antimicrobial Resistance) were well characterized in our previous study ([7]) and were selected for susceptibility testing and minimum bactericidal concentration (MBC) assays. Among them, five isolates with different clonality (underlined strains in Fig. S1) were selected for the time-kill assays and in vivo experiments.
Broth microdilution, disc diffusion, Etest, and agar dilution assays were conducted following CLSI guidelines to determine vancomycin MICs ([8]). […] Criteria for Staphylococcus spp. were not adopted due to the lack of a zone diameter breakpoint. MBCs were determined following CLSI guidelines ([8]).

For `CN[C@H](CC(C)C)C(=O)N[C@H]1C(=O)N[C@@H](CC(N)=O)C(=O)N[C@H]2C(=O)N[C@H]3C(=O)N[C@H](C(=O)N[C@H](C(=O)O)c4cc(O)cc(O)c4-c4cc3ccc4O)[C@H](O)c3ccc(c(Cl)c3)Oc3cc2cc(c3O[C@@H]2O[C@H](CO)[C@@H](O)[C@H](O)[C@H]2O[C@H]2C[C@](C)(N)[C@H](O)[C@H](C)O2)Oc2ccc(cc2Cl)[C@H]1O` [Vancomycin], the susceptibility category entry is recorded as “non-susceptible”. Further, the “MICs, range over isolates” value (18 E. anophelis isolates, broth microdilution, concordant with agar dilution and Etest) was 16 to 32 mg/L. The MIC (read-out: MIC, BMD, E. anophelis clinical isolate 2008N05-106) came out at 32 µg/mL (≈ 22.1 µM). The MIC (read-out: MIC, BMD, E. anophelis clinical isolate 2008S01-229) was 32 µg/mL (≈ 22.1 µM). Also, the MIC (read-out: MIC, BMD, E. anophelis clinical isolate 2014C06-157) was 32 µg/mL (≈ 22.1 µM). Where the note is “read-out: MIC, BMD, E. anophelis clinical isolate 2016N17-576”, the MIC was found to be 32 µg/mL (≈ 22.1 µM). Moreover, under “read-out: MIC, BMD, E. anophelis clinical isolate 2018C04-213”, the MIC stood at 16 µg/mL (≈ 11 µM). In addition, the MIC (read-out: MIC, BMD, E. anophelis clinical isolate 2018C04-224) stood at 16 µg/mL (≈ 11 µM). Also, the MIC (read-out: MIC, BMD, E. anophelis clinical isolate 2018C07-210) came to 16 µg/mL (≈ 11 µM). Also, for the setting “read-out: MIC, BMD, E. anophelis clinical isolate 2018C07-234”, the MIC came out at 16 µg/mL (≈ 11 µM). The MIC (read-out: MIC, BMD, E. anophelis clinical isolate 2018C08-127) amounted to 16 µg/mL (≈ 11 µM). Under “read-out: MIC, BMD, E. anophelis clinical isolate 2018E03-151”, the MIC came to 16 µg/mL (≈ 11 µM). Moreover, where the note is “read-out: MIC, BMD, E. anophelis clinical isolate 2018E04-135”, the MIC worked out at 16 µg/mL (≈ 11 µM). Besides, the MIC (read-out: MIC, BMD, E. anophelis clinical isolate 2018N16-057) worked out at 16 µg/mL (≈ 11 µM). The MIC (read-out: MIC, BMD, E. anophelis clinical isolate 2018N17-036) came out at 32 µg/mL (≈ 22.1 µM). Also, the MIC (read-out: MIC, BMD, E. anophelis clinical isolate 2018N17-073) amounted to 16 µg/mL (≈ 11 µM). Also, the MIC (read-out: MIC, BMD, E. anophelis clinical isolate 2018N17-153) was 16 µg/mL (≈ 11 µM). For the same compound, the MIC (read-out: MIC, BMD, E. anophelis clinical isolate 2018N21-226) stood at 16 µg/mL (≈ 11 µM). Besides, under “read-out: MIC, BMD, E. anophelis clinical isolate 2018S09-023”, the MIC was 16 µg/mL (≈ 11 µM). Also, where the note is “read-out: MIC, BMD, E. anophelis clinical isolate 2018S11-172”, the MIC turned out to be 32 µg/mL (≈ 22.1 µM). Further, the MIC (read-out: MICs as summarised in the discussion, E. anophelis, isolates not specified) amounted to 32 µg/mL (≈ 22.1 µM). The susceptibility category result (listed as vancomycin) was “resistant”.
